# No end group written: not given here.
# Columns and labels:
# [1] = target: T1, glycosylated human LCAT protein (Homo sapiens, UniProt P04180); test: MP-SPR binding of LCAT to immobilised biotin-labelled apoA-I-derived peptides; conditions: N-terminal biotin-peptide on streptavidin-coated sensor, LCAT 156-5,000 nM serial injections of 15 min, 10 μl/min, buffer A pH 7.4, 293 K, Langmuir fit
# T1 construct: purchased Sino Biological Inc., Beijing, China; host or cells: human cells
# T1 sequence (P04180 25-440): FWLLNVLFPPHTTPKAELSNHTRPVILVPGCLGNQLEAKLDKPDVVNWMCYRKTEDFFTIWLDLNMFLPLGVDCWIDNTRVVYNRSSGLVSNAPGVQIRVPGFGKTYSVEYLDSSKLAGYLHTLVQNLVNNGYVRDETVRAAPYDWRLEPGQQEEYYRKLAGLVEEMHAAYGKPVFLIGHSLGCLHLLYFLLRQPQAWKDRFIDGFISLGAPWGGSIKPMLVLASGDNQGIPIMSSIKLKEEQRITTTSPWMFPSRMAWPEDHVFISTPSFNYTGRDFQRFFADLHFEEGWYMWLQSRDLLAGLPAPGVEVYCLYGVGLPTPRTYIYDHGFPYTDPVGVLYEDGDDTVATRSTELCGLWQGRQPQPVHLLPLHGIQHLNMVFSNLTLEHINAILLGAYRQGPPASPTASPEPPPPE
# Protocol: POPC dissolved in chloroform (25 mg/ml) was obtained from Avanti Polar Lipids (Alabaster, AL). Calcium chloride, HEPES, CHAPS, sodium chloride, EDTA, sodium azide, and potassium dihydrogen phosphate were obtained from Merck Sigma-Aldrich (Darmstadt, Germany). Potassium chloride was obtained from Honeywell Riedel de Haën (Seelz, Germany); disodium hydrogen phosphate was obtained from Fisher Scientific (Hampton, NH). Peptides and N-terminal biotin-labeled peptides were synthesized by Peptide Protein Research Ltd., Hampshire, UK and had the following amino acid sequences: i) 122-142, […]; ii) 135-155, […]; iii) 150-170, […]; iv) 150-170-Y166F, […]; and v) 185-205, […]. Lyophilized glycosylated human LCAT protein (Sino Biological Inc., Beijing, China; a recombinant protein produced in human cells) was reconstituted with 400 μl of ultrapure sterile water to yield LCAT at 5 μM in PBS (manufacturer specifications). Ultrapure water used for preparation of the buffer and in all measurements was prepared with a Milli-Q purification system, having a resistivity of 18 MΩ·cm and TOC level of <5 ppm. The following buffers were used: 20 mM PBS, 1 mM EDTA, 1 mM Na azide (pH 7.4) (buffer A); and 20 mM HEPES and 150 mM NaCl (pH 7.4) (buffer B).
# Measurements were performed with a multi-parameter SPR Navi™ 200 (BioNavis Ltd., Tampere, Finland) instrument. The setup was equipped with two incident laser wavelengths, 670 nm and 785 nm, two independent flow channels, inlet tubing and outlet (waste) tubing, and an autosampler. Both of the flow channels were measured simultaneously with 670 nm and 785 nm incident light. The measurement temperature was kept constant at 293° K. Biotin-coated SPR sensors (Bionavis Ltd.) were placed in the flow-cell. The flow rates used for the streptavidin interaction with biotin, biotin-peptides with streptavidin, and for LCAT interaction with immobilized peptides were 10 μl/min. SPR spectra were recorded after introduction of buffer A into the flow-cell for 10–30 min until a stable baseline was achieved, after which the surface was fully saturated with streptavidin during a 10 min serial injection at 1.9 μM to saturate the SPR sensor. It was observed that after 5 min the SPR sensor was fully coated with streptavidin; therefore, the method was adapted to 5 min. In the second phase of the measurement, in DMSO solubilized biotin-peptides with a final concentration of 100 μM were injected in parallel into both flow channels for 7 min at […] to cover the SPR sensor fully, i.e., until all streptavidin bindings sites were fully occupied. Parallel injections ensured that two peptides were analyzed simultaneously. Increasing concentrations of LCAT were then injected into both channels via serial injection, to ensure the lowest variation of LCAT injection for 15 min at increasing concentrations (156, 313, 625, 1250, 2,500, and 5,000 nM) to determine the binding constant of the LCAT-peptide complexes. The data was fitted in OriginPro (v. 8.6, OriginLab Corp., Northampton, MA) according to the Langmuir model to obtain the dissociation constants (Kd) and the responses of saturated binding (Rmax): R=Rmax/1+Kd/c
# where R is the final response after each injection and c is the concentration of LCAT in each injection.
# To also elucidate the specificity of different peptide regions against LCAT, we carried out MP-SPR experiments to determine dissociation constants (Kd) for the LCAT-peptide complexes. […]
# [2] = QCM binding of LCAT, peptides or LCAT plus peptide to a POPC supported lipid bilayer; conditions: POPC SLB, LCAT 37.5 nM in buffer A, without apoA-I or peptide
# Protocol: Prior to the QCM measurements, the PBS buffer formed after reconstitution of LCAT was exchanged for buffer A due to the extremely high sensitivity of the QCM method to slight differences in the ionic strength of the background buffer. The LCAT solution was placed in an Amicon Ultra-0.5 10K centrifugal filter device (Merck Millipore Ltd., Tullagreen Carrigtohill, Ireland) and equal volumes of buffer A were filtered through 10 times at 14,000 g, after which 400 μl of buffer A were added to fully recover LCAT at 5 μM. The peptides were dissolved into buffer A at a final concentration of 100 μM. An impedance-based QCM instrument (KSV Instruments Ltd., Helsinki, Finland) was used for the measurements. The measurement temperature was kept constant at 293° K. Before measurements, silica-coated QCM sensors (Q-Sense Inc./BiolinScientific, Västra Frölunda, Sweden) were first flushed with 70% ethanol and ultrapure water, dried under nitrogen flow, and finally oxygen plasma treated (PDC-002; Harrick Plasma, Ithaca, NY) for 5 min at 29.6 W and 133-173 Pa. Samples were injected into the measurement chamber with a peristaltic pump system (Ismatec/Cole-Parmer GmbH, Wertheim, Germany). […] Neither LCAT nor peptides induced changes in viscoelastic properties of the bilayer, which was seen as negligible changes in the recorded energy dissipation. […]
# [3] = LCAT with small unilamellar vesicles in the absence of apolipoproteins; cited from earlier work
# Text: To assess the possibility of the second hypothesis, we calculated the binding free-energies for LCAT in open and closed states. As shown by the PMF profiles in Fig. 5A, the lid-open state (ΔGwater→lipid = −28 ± 1 kJ/mol) is not able to bind so strongly to lipids when compared with the lid-closed state (ΔGwater→lipid = −34 ± 1 kJ/mol), although the previous findings indicated a deeper lipid interaction for the open state (Fig. 3B). The value for the closed state is well in agreement with existing experimentally determined dissociation constants giving binding a free-energy value of −36 kJ/mol f ...
Substance,Kd [1] [nM],Binding of LCAT alone to the POPC membrane [2],Binding free-energy from experimentally determined dissociation constants [3] [kJ/mol]
HELQEKLSPLGEEMRDRARAH [135-155],819,–,–
DRARAHVDALRTHLAPFSDEL [150-170-Y166F],1840,–,–
lecithin:cholesterol acyltransferase [LCAT],–,binds to the POPC membrane without apoA-I,-36
LRAELQEGARQKLHELQEKLS [122-142],1030,–,–

# Second part, led by results:
Kd [1] [nM],Substance,Binding of LCAT alone to the POPC membrane [2],Binding free-energy from experimentally determined dissociation constants [3] [kJ/mol]
290,DRARAHVDALRTHLAPYSDEL [150-170],–,–
4690,"GGARLAEYHAKATEHLSTLSE [185-205, reference compound]",–,–

# From paper PMC5880497, “Interaction of lecithin:cholesterol acyltransferase with lipid surfaces and apolipoprotein A-I-derived peptides” (Journal of Lipid Research, 2018)
